Reference: patent publication US20130303518A1, “Methods of Inhibiting the Catalytic Activity of a Protein Kinase and of Treating a Protein Kinase Related Disorder” (JIANGSU HANSOH PHARMACEUTICAL CO., LTD., priority 2007, published 2013)

How the values were obtained:
PDGFRβ = biological target: T1, PDGFRβ (Homo sapiens, UniProt P09619); assay: Inhibition of receptor tyrosine kinases activity assay; format: biochemical
T1 construct: purchased invitrogen PV3082

c-Kit = biological target: T2, c-Kit (Homo sapiens, UniProt P10721); assay: as above; format: biochemical
T2 construct: purchased invitrogen PV3081
T2 sequence (P10721 26-976): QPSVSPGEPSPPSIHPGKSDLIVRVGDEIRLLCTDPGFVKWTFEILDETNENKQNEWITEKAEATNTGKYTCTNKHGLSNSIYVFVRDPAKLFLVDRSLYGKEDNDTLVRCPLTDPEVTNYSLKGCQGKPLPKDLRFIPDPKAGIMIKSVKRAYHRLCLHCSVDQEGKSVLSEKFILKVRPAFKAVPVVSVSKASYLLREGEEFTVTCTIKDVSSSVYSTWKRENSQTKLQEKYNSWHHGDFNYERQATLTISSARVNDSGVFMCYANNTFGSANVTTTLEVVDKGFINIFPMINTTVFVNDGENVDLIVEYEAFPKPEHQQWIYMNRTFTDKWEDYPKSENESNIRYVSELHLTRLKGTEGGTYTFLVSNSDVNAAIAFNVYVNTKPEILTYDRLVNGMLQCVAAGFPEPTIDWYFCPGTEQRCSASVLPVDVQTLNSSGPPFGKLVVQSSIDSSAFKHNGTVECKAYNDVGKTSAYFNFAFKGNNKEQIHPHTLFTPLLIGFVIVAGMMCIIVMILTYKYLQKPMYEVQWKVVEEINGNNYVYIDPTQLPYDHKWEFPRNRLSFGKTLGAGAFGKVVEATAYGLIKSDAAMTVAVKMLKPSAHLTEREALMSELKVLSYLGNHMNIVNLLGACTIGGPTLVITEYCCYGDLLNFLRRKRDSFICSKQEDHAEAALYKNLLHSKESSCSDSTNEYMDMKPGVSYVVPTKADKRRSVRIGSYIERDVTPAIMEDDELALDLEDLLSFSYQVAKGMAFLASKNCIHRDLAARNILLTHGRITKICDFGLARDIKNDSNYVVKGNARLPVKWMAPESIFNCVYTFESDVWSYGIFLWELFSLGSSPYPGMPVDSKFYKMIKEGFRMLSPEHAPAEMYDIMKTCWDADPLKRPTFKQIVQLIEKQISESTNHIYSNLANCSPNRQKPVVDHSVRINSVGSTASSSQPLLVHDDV

Flt3 = biological target: T3, Flt3 (Homo sapiens, UniProt P36888); assay: as above; format: biochemical
T3 construct: purchased invitrogen PV3182
T3 sequence (P36888 27-993): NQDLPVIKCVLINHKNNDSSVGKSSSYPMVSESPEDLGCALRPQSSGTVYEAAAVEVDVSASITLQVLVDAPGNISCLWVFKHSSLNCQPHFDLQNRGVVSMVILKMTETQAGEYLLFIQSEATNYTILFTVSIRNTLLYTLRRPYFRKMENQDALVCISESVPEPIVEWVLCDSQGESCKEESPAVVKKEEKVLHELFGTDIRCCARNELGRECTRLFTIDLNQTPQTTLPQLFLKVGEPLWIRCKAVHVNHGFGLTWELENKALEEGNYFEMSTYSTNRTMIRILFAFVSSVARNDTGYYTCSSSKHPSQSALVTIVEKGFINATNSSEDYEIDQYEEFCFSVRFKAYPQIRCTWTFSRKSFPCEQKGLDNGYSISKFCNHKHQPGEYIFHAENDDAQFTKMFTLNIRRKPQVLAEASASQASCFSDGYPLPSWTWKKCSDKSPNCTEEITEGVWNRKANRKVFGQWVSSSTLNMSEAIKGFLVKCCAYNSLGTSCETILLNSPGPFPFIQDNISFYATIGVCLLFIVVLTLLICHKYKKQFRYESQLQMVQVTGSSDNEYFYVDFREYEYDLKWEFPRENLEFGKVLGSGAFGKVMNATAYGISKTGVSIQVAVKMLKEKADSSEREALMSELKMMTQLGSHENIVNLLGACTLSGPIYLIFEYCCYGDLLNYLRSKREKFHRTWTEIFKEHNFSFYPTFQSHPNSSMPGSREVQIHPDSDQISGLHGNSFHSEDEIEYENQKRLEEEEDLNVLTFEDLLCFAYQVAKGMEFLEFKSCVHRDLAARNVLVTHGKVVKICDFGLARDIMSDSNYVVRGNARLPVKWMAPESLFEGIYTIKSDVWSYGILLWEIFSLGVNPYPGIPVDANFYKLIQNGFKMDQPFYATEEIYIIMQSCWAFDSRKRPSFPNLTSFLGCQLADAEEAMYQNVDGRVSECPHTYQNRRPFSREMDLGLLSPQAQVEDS

[1] = system: Calu-3(non-small cell lung cancer); assay: Anticancer pharmacodynamic assay in vivo, xenograft; design: species or system nude mice; details: for T/C (%): relative tumor volume (%) / Note: PR (partial regression), animals: Calu-3 xenograft, d0-20; for Note: PR (partial regression), animals: treatment group n = 6
From the text: The test method and steps are the same with those disclosed in “PHARMACODYNAMIC ASSAYS IN VIVO” of the present invention. The therapeutic effects of the compound of Example 53 against xenografts of colon cancer, non-small cell lung cancer, liver cancer, melanoma, renal cancer in nude mice are estimated.
Calu-3(non-small cell lung cancer): Cell Bank, Chinese Academy of Sciences, TCHu157;
Nude mice were hypodermic inoculated HT-29 human colon cancer cell. After tumors grew to 100-300 mm^3, mice were randomly divided into teams (d0). The volume of tumors and weigh of the mice were measured for 2-3 times per week. The calculation formula of the volume of tumor (V) is: V=½×a×b^2, a: length of tumor, b: width of tumor.

[2] = system: Mo7e (human megakaryoblastic leukemia cell line); assay: Inhibition of cancer cell proliferation assay (SRB); format: cell-based; details: mean ± SD, 72 hours
From the text: The cellular assay described here is to test the proliferation inhibition activity of the compound of Example 53 on the cancer cells in vitro using Sulforhodamine B (SRB) method. The cancer cells include HUVEC (human umbilical vein endothelial cells), HT-29 (human colon cancer cells), Mo7e (human megakaryoblastic leukemia cell line), A431 (human epidermoid carcinoma cells), NCI—H526 (small-cell lung cancer cells), and SK—BR-3 (human breast cancer cells).
Mo7e cancer cell: originally described by Avanzi et al. ((1988) Br. J. Haematol. 69:359-366), was obtained from Genetics Institute (Boston, Mass.) and was maintained in Iscove's modified Dulbecco's medium (Life Technologies, Inc.);
The following in vitro assay is to determine the activity of the tested compound for inhibiting the proliferation of the cancer cells mentioned above. The activity is represented by the IC50 value. The general procedures of the assay are given as follows: Cancer cells mentioned above were chosen and seeded to 96-well cell culture plate at a suitable concentration (e.g., 5000 cells/mL medium). […] 72 hours later, the activity of the tested compound for inhibiting the cell proliferation was determined by using Sulforhodamine B (SRB) method. IC50 value on tested cells is calculated by the data of inhibition rates of serial concentrations of the tested compound.

[3] = mean ± SD, 20 μM ATP, 25° C., 45 minutes

T1 sequence (P09619 33-1106): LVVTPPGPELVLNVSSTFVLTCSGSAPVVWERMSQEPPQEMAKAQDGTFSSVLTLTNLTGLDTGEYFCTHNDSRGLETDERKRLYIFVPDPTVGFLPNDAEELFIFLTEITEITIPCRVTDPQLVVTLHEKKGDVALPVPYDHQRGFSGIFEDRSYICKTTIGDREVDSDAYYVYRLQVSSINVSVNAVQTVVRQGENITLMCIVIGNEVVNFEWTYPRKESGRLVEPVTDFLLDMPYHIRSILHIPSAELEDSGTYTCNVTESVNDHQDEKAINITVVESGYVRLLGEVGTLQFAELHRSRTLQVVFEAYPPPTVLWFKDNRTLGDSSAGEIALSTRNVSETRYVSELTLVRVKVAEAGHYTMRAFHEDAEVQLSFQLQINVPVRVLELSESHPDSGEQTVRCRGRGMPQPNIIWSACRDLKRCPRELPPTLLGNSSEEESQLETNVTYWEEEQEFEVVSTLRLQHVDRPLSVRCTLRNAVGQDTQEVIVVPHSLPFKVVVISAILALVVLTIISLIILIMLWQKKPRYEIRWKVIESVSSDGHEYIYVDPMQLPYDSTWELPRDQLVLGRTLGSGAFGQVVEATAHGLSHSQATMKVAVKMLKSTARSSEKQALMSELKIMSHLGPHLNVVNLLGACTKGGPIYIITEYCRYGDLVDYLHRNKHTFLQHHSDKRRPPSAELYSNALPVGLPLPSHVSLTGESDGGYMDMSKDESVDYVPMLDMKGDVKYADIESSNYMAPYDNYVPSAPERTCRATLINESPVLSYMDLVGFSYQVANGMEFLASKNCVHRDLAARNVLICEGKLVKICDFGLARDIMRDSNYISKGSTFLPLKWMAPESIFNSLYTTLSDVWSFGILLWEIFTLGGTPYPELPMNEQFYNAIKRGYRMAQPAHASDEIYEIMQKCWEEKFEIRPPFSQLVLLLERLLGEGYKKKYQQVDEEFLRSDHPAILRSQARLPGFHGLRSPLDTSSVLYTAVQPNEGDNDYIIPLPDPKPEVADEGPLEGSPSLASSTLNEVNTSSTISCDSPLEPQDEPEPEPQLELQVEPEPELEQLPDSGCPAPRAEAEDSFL

## Cc1c(/C=C2\C(=O)Nc3ccc(F)cc32)[nH]c2c1C(=O)N(C[C@H](O)CN1CCOCC1)CCC2 [Example 53, (R,Z)-2-(5-Fluoro-2-oxo-1,2-dihydro-indol-3-ylidenemethyl)-5-(2-hydroxy-3-morpholin-4-yl-propyl)-3-methyl-5,6,7,8-tetrahydro-1H-pyrrolo[3,2-c]azepin-4-one]
PDGFRβ; PDGFRβ
  inhibition of kinase activity (in words): obvious activity
PDGFRβ; [3]
  IC50: 0.0415 ± 0.0227 µM
c-Kit; c-Kit
  inhibition of kinase activity (in words): obvious activity
c-Kit; [3]
  IC50: 0.0033 ± 0.0036 µM
Flt3; Flt3
  inhibition of kinase activity (in words): obvious activity
Flt3; [3]
  IC50: 0.0193 ± 0.0031 µM
[1]; Calu-3 xenograft in nude mice
  anticancer activity against xenograft (in words): obvious anticancer activity
[1]; 15 mg/kg p.o
  T/C (%): relative tumor volume (%): 26.3%
[1]; 30 mg/kg p.o
  T/C (%): relative tumor volume (%): 14.7%
  Note: PR (partial regression), animals: 3/6(PR)
[1]; 60 mg/kg p.o
  T/C (%): relative tumor volume (%): 16.1%
  Note: PR (partial regression), animals: 3/6(PR)
[2]
  IC50: 0.8 µM
